# Data from patent US20090062369A1, “USE OF SECRETORY PHOSPHOLIPASE A2 (SPLA2) INHIBITORS TO DECREASE SPLA2 LEVELS” (priority 2007, published 2009).
# Tested on: serum sPLA2
# Test: Effect of twice-a-day oral A-002 on serum sPLA2 levels in subjects with stable coronary artery disease (Example 6)
# Assay type: in vivo, human
# Protocol: The protocol for preparing standard curve, test, and quality control samples for use in the assay disclosed herein is set forth in Example 5. Samples are prepared according to this protocol, then loaded in duplicate onto a plate (Cayman catalog no. 485002 or equivalent) that has been pre-coated with a monoclonal sPLA2 antibody (“capture antibody”) that specifically binds sPLA2. In certain embodiments, the capture antibody may interact with a specific form of sPLA2, such as for example sPLA2 type IIA.
# sPLA2 acetylcholinesterase:Fab′ conjugate (AChE:Fab′) (“conjugate”) (Cayman catalog no. 485000 or equivalent) is reconstituted in EIA buffer (Cayman catalog no. 400060 or equivalent). Cayman EIA buffer is 1M phosphate, pH 7.0, 1% BSA, 4M NaCl, 10 mM EDTA, and 0.1% sodium azide. Reconstituted conjugate is added to each well of the plate. The conjugate binds a different sPLA2 epitope than the capture antibody, allowing the capture antibody and the conjugate to form a “sandwich” that is immobilized on the plate. Excess reagents are washed away, and the plate is covered and incubated overnight at 2-8° C.
# Prior to development, the wells are washed five to six times with wash buffer (Cayman catalog no. 400062 or equivalent). To develop the plate, Ellman's Reagent (Cayman catalog no. 400050 or equivalent) is reconstituted in water and added to each well according to manufacturer instructions. The reconstituted Ellman's Reagent must be used the same day it is prepared because it is unstable. Ellman's Reagent contains an AChE substrate. Specifically, Ellman's Reagent contains acetylthiocholine and 5,5′-dithio-bis-(2-nitrobenzoic acid). Hydrolysis of acetylthiocholine by acetylcholinesterase produces thiocholine, which reacts with 5,5′-dithio-bis-(2-nitrobenzoic acid) to produce 5-thio-2-nitrobenzoic acid. 5-thio-2-nitrobenzoic acid has a strong absorbance at 412 nm. The intensity of absorbance at this wavelength is directly proportional to the concentration of bound conjugate, which is in turn is directly proportional to the concentration of sPLA2 present (Absorbance a [AChE:Fab′ conjugate] α [sPLA2]). During the development step, the plate is shaken, preferably in the dark. In certain embodiments the development time for the assay is 0.5 to 3 hours, preferably 1 to 1.5 hours. At the end of the development period, the high sPLA2 standards should have greater yellow color development than the zero standards. Absorbance of each well is measured at 400-420 nm using a micro-well plate reader. In certain embodiments, absorbance is measured at about 405 nm.
# Absorbance readings for duplicate wells are averaged, and the relative standard deviation and % CV are calculated. Standard curve data are used to generate a four parameter curve, and quality control and test samples are measured against the appropriate standard curve (i.e., the standard curve with the same serum content). In order for a test to be considered valid, variation between duplicate wells should be no more than about 25%, and negative controls (blanks) for each standard curve should have a mean absorbance of less than about 0.3.
# The method disclosed herein for measuring sPLA2 levels in serum was utilized to determine the effect of administering certain sPLA2 inhibitors on sPLA2 levels in 84 human subjects. The subjects included 24 subjects with diabetes, 32 subjects with metabolic syndrome, and 75 subjects receiving statin treatment. Subjects were administered the sPLA2 inhibitor A-002, a prodrug form of A-001, twice a day at varying dosages from 50 to 500 mg. The structures of A-002and A-001 are set forth below. At two weeks and four weeks after the first administration, sPLA2 levels were measured and compared to pre-administration baseline levels.
# 84 subjects with stable coronary artery disease were randomized to receive placebo or A-002 via oral administration twice a day over a four week administration period. […]
# [1] = 250 mg, statin subgroup of ITT population
# [2] = 500 mg, diabetes subgroup of ITT population
# [3] = 500 mg, non-diabetes subgroup of ITT population
structure (smiles),measurement,setting,value
"CCc1c(C(=O)C(N)=O)c2c(OCC(=O)OC)cccc2n1Cc1ccccc1 [A-002, [[3-(2-Amino-1,2-dioxoethyl)-2-ethyl-1-(phenylmethyl)-1H-indol-4-yl]oxy]acetic acid methyl ester]","sPLA2 Change from baseline at week 2, Mean",[1],-2.01 ng/mL
same,"sPLA2 Change from baseline at week 2, Median",[1],-1.65 ng/mL
same,"sPLA2 Change from baseline at week 2, Range",[1],-4.20 to -0.20 ng/mL
same,"sPLA2 Change from baseline at week 4, Mean",[1],-2.13 ng/mL
same,"sPLA2 Change from baseline at week 4, Median",[1],-2.15 ng/mL
same,"sPLA2 Change from baseline at week 4, Range",[1],−4.20 to +0.20 ng/ml
same,"sPLA2 level, Baseline, Mean",[1],2.84 ng/mL
same,"sPLA2 level, Baseline, Median",[1],2.40 ng/mL
same,"sPLA2 level, Baseline, Range",[1],1.30 to 5.20 ng/mL
same,"sPLA2 level, Week 2, Mean",[1],0.68 ng/mL
same,"sPLA2 level, Week 2, Median",[1],0.30 ng/mL
same,"sPLA2 level, Week 2, Range",[1],0.05 to 4.40 ng/mL
same,"sPLA2 level, Week 4, Mean",[1],0.57 ng/mL
same,"sPLA2 level, Week 4, Median",[1],0.30 ng/mL
same,"sPLA2 level, Week 4, Range",[1],0.05 to 2.30 ng/mL
same,"sPLA2 Change from baseline at week 2, Mean","500 mg, ITT population",-2.84 ng/mL
same,"sPLA2 Change from baseline at week 2, Median","500 mg, ITT population",-2.95 ng/mL
same,"sPLA2 Change from baseline at week 2, Range","500 mg, ITT population",-4.80 to -0.55 ng/mL
same,"sPLA2 Change from baseline at week 4, Mean","500 mg, ITT population",-2.87 ng/mL
same,"sPLA2 Change from baseline at week 4, Median","500 mg, ITT population",-2.95 ng/mL
same,"sPLA2 Change from baseline at week 4, Range","500 mg, ITT population",-4.80 to -0.55 ng/mL
same,"sPLA2 level, Baseline, Mean","500 mg, ITT population",2.96 ng/mL
same,"sPLA2 level, Baseline, Median","500 mg, ITT population",2.80 ng/mL
same,"sPLA2 level, Baseline, Range","500 mg, ITT population",0.60 to 5.40 ng/mL
same,"sPLA2 level, Week 2, Mean","500 mg, ITT population",0.18 ng/mL
same,"sPLA2 level, Week 2, Median","500 mg, ITT population",0.05 ng/mL
same,"sPLA2 level, Week 2, Range","500 mg, ITT population",0.05 to 0.60 ng/mL
same,"sPLA2 level, Week 4, Mean","500 mg, ITT population",0.15 ng/mL
same,"sPLA2 level, Week 4, Median","500 mg, ITT population",0.05 ng/mL
same,"sPLA2 level, Week 4, Range","500 mg, ITT population",0.05 to 0.60 ng/mL
same,"sPLA2 Change from baseline at week 2, Mean",[2],-3.75 ng/mL
same,"sPLA2 Change from baseline at week 2, Median",[2],-3.50 ng/mL
same,"sPLA2 Change from baseline at week 2, Range",[2],-4.80 to -2.95 ng/mL
same,"sPLA2 Change from baseline at week 4, Mean",[2],-3.82 ng/mL
same,"sPLA2 Change from baseline at week 4, Median",[2],-3.70 ng/mL
same,"sPLA2 Change from baseline at week 4, Range",[2],-4.80 to -2.95 ng/mL
same,"sPLA2 level, Baseline, Mean",[2],3.73 ng/mL
same,"sPLA2 level, Baseline, Median",[2],3.40 ng/mL
same,"sPLA2 level, Baseline, Range",[2],2.70 to 5.40 ng/mL
same,"sPLA2 level, Week 2, Mean",[2],0.32 ng/mL
same,"sPLA2 level, Week 2, Median",[2],0.30 ng/mL
same,"sPLA2 level, Week 2, Range",[2],0.05 to 0.60 ng/mL
same,"sPLA2 level, Week 4, Mean",[2],0.25 ng/mL
same,"sPLA2 level, Week 4, Median",[2],0.10 ng/mL
same,"sPLA2 level, Week 4, Range",[2],0.05 to 0.60 ng/mL
same,"sPLA2 Change from baseline at week 2, Mean",[3],-2.61 ng/mL
same,"sPLA2 Change from baseline at week 2, Median",[3],-2.68 ng/mL
same,"sPLA2 Change from baseline at week 2, Range",[3],-4.40 to -0.55 ng/mL
same,"sPLA2 Change from baseline at week 4, Mean",[3],-2.63 ng/mL
same,"sPLA2 Change from baseline at week 4, Median",[3],-2.53 ng/mL
same,"sPLA2 Change from baseline at week 4, Range",[3],-4.35 to -0.55 ng/mL
same,"sPLA2 level, Baseline, Mean",[3],2.73 ng/mL
same,"sPLA2 level, Baseline, Median",[3],2.70 ng/mL
same,"sPLA2 level, Baseline, Range",[3],0.60 to 4.60 ng/mL
same,"sPLA2 level, Week 2, Mean",[3],0.15 ng/mL
same,"sPLA2 level, Week 2, Median",[3],0.05 ng/mL
